Molecular target: T1, AlaRS N71Y binding to GST-Nrp1 b1 (Homo sapiens, UniProt P49588, N71Y)
T1 construct: made in house; host or cells: E. coli BL21 (DE3), pET-21a for AlaRS
T1 sequence (P49588 1-968 N71Y): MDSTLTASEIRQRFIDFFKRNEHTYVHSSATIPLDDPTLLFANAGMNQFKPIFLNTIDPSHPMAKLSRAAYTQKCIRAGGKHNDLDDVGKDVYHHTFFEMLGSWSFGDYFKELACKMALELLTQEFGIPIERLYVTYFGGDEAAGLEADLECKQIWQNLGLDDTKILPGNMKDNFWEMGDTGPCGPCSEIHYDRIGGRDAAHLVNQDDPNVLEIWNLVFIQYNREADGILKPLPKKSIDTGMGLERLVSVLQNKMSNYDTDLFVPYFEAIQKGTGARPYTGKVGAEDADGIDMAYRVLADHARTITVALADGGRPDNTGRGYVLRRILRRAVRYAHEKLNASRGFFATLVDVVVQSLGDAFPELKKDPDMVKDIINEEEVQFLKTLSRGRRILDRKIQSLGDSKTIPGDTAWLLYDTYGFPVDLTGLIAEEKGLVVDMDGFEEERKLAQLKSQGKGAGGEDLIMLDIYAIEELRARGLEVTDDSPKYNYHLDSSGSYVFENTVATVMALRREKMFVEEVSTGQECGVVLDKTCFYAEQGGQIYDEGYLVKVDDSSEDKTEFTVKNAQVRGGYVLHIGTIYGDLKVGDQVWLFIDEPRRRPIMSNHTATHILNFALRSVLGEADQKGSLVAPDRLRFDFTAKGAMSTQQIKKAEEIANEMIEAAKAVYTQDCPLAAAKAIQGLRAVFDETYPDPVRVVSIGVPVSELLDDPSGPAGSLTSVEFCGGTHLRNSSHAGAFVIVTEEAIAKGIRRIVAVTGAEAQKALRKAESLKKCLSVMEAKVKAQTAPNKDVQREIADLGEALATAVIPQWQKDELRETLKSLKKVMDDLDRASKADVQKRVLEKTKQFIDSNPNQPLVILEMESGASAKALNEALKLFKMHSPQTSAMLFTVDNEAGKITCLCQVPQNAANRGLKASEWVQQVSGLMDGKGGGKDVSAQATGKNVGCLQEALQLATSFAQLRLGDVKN
Assay: GST pull down assay
Conditions: 20 µM Tanshinone I, ImageJ, average of three repeats

Mean density band (N71Y), relative quantification of AlaRS mutant pulled down: 0.82
Compound: Cc1coc2c1C(=O)C(=O)c1c-2ccc2c(C)cccc12 [Tanshinone I]

Reference: publication PMC11509018, “Evaluation of the Role of Tanshinone I in an In Vitro System of Charcot-Marie-Tooth Disease Type 2N” (International Journal of Molecular Sciences, 2024)
